The values that follow come from patent publication US12527785B2, “Renin-angiotensin-aldosterone system (RAAS) inhibitors in the treatment of pancreatic ductal carcinoma” (OCHSNER CLINIC FOUNDATION, priority 2023, dated 2026).

In one series the test system is PANC-1 cells. In words: WST1 cell proliferation assay, PANC-1 cells. The class given is cell-based, human. The conditions noted are these: 10% FCS-DMEM. The protocol:
(§1) PDA cell line (PANC-1 or HS766T) or patient cancer cells (PaCa9) were trypsinized with 1% trypsin in Hank's Balanced Salt Solution (HBSS), counted, washed, and resuspended in serum free AIM media (ThermoFisher Scientific, Waltham, MA) or complete Dulbecco's Modified Eagle Medium (DMEM) supplemented with 10% fetal bovine serum, […], 100 U/ml of penicillin G, and […] of streptomycin. Cells at a concentration of 2-4×10^4 cells/well in 100 μl culture medium were seeded in triplicate in 96 well plates, then cultured in a humidified incubator at 37° C. and 5% CO2. On the next day, cell supernatant was discarded and compounds (e.g., drugs) of the present disclosure in 200 μl medium were added with the concentrations indicated in the following Examples. After 72 hours of culture, cell proliferation reagent WST1 (20 μl/well, Sigma Aldrich Inc, St. Louis, MO) were added and plates were read using an ELISA reader at 2 hours and 4 hours under the wavelength of 450 nm. The measured absorbance (OD value) was recorded and graphed and statistically analyzed using GraphPad Prism 8, t-test, or t-test with Bonferroni correction.
For orientation: Tetrazolium dyes change colour on reduction, which living cells bring about.

In another series the test system is HS766T cells. As to the kind of experiment: WST1 cell proliferation assay, HS766T cells. The class given is cell-based. The conditions noted are these: 10% FCS-DMEM. The protocol:
as §1

For series [1], the system named is PaCa-9 PDAC patient tumor cells. In words: WST1 cell proliferation assay, PaCa-9 PDAC patient tumor cells. The class given is cell-based, human. Particulars: 10% FCS-DMEM. The protocol:
as §1, with “Louis, MO) were added and plates were read using an ELISA reader at 2 hours and 4 hours under the wavelength of 450 nm.” left out

Series [2] in a line: Toxicity, body weight and deaths observed in the in vivo xenograft studies. From the text: Human PDCA cell line PANC-1 was transduced with pre-made lentiviral vectors encoding luciferase (firefly)/red fluorescent protein (RFP) to enable monitoring of the growth of primary tumor and metastasis. […] For in vivo experiments, Nonobese diabetic/severe combined immunodeficiencyNOD-SCID mice (Jackson Labs, Bar Harbor, ME, or inhouse breeding) were first brought under anesthesia with isoflurane (2.5% in 100% oxygen, 1 L/min) in an induction chamber and maintained under adequate anesthesia (isoflurane inhalation) while being laid on a warming pad throughout the surgical procedure. For tumor generation, 5×10^4 luciferase-tagged PANC-1 cells were co-inoculated with 3×10^5 lymph node stromal cell (LNSC) analog HK cells. The mice received a 0.75-1.2 cm long incision (on the left side of the body slightly medial to the splenic silhouette) to exteriorize the spleen and pancreas. While gently retracting the pancreas laterally, a 30 G needle was inserted along the length of the pancreas from the tail to the pancreatic head region. Then, 10 μl of cell suspension was injected as the needle was withdrawn to the mid-body of the pancreas. The needle was removed, and the area was inspected for leakage and bleeding. The pancreas and spleen were internalized with forceps and the abdominal muscle layer was closed with interrupted stitches (3-0 silk suture). The overlying skin was closed with a second set of interrupted stitches. Buprenorphine SR-LAB was injected subcutaneously immediately after the surgery for pain relief.
After the surgery, tumor growth and metastatic tumor burden were monitored and assessed weekly for luciferase activity by bioluminescence imaging (BLI) using Lago Imaging System (Spectral Instruments Imaging, Tucson, AZ). Mice were anesthetized using isoflurane for all imaging procedures. Mice were administered intraperitoneally with luciferin (10 mg/kg) and imaged in 10-20 minutes for maximum luciferase signal plateau. Images were analyzed using Aura Imaging software. […] […] […] Data was statistically analyzed using t-test, or t-test with Bonferroni correction.

Series [3] can be described thus: Serum concentration of EMA401 after oral dosing in humans. The class given is in vivo, human.
Series [4] deals with PDCA cells (PANC-1, HS766T, PaCa9). As to the kind of experiment: In vitro PDCA cell proliferation (WST1), summary statements over the cell lines tested. The class given is cell-based. Particulars: 10 μM; all cell lines tested. The protocol:
as §1

The conditions of series [5]: 100 mg EMA401 p.o. in men and women; cited from earlier work.

Where two headings read alike, the source gives them in different places.

As for `COc1ccc2c(c1OCc1ccccc1)C[C@@H](C(=O)O)N(C(=O)C(c1ccccc1)c1ccccc1)C2` [EMA401], the “cell proliferation, WST1 absorbance (OD value, 450 nm), mean” value (“cell proliferation, WST1 absorbance” for short) is recorded as 2.976 in the series with PANC-1 cells (EMA 10 μM, Table 1, 2 h, control 3.618); 2.957 in the series with PANC-1 cells (EMA 50 μM, Table 1, 2 h, control 3.618); 2.872 with PANC-1 cells (EMA401 10 μM, Table 5A, 2×10^4 cells per well, Medium/DMSO 3.348); 0.691 in the series with PANC-1 cells (EMA401 50 μM, Table 5A, 2×10^4 cells per well, Medium/DMSO 3.348); 1.360 in the series on HS766T cells (EMA 10 μM, Table 2, 2 h, control 3.214); 1.41 in the series with HS766T cells (EMA 50 μM, Table 2, 2 h, control 3.214). For the same compound, the “cell proliferation, WST1 absorbance” value is 3.290 in the series with HS766T cells (EMA401 10 μM, Table 6A, 2×10^4 cells per well, control 3.339); 0.593 in the series on HS766T cells (EMA401 50 μM, Table 6A, 2×10^4 cells per well, control 3.339); 2.088 in series [1] (EMA 10 μM, Table 3, 1 h, Medium/DMSO 3.571); 2.910 in series [1] (EMA 10 μM, Table 4, 2 h, Medium/DMSO >3.60); 2.000 in series [1] (EMA 50 μM, Table 3, 1 h, Medium/DMSO 3.571); 2.447 in series [1] (EMA 50 μM, Table 4, 2 h, Medium/DMSO >3.60). Moreover, the “cell proliferation, WST1 absorbance” value in series [1] (EMA401 10 μM, Table 7A, 2×10^4 cells per well, control 3.535) is 3.257; in series [1] (EMA401 50 μM, Table 7A, 2×10^4 cells per well, control 3.535) it was 0.541. For the same compound, in series [2] (100 mg/kg EMA401 for 8 weeks), the “End of study body weights versus control” value is recorded as “not different”. Moreover, in series [2] (100 mg/kg EMA401 for 8 weeks (Table 16, Tables 17A-17C)), the Drug-related toxicity entry was “No drug-related toxicity was observed”. The “Deaths during the study” value in series [2] (100 mg/kg EMA401 for 8 weeks, one control animal died) is “no EMA401-treated animal died”. In addition, the Serum concentration in series [3] (100 mg EMA401 p.o. in men and women, converted with mol wt 507.6) is 2 µM; in series [3] (400 mg/day EMA401 in humans), 8 µM; in series [3] (600 mg/day p.o., extrapolated (would produce)), 12 µM; in series [5] it was 1000 ng/mL. For the same compound, in series [4], the “Effective (statistically significant, p<0.05, decrease in cell proliferation by WST1 assay)” value is “effective in all cell lines tested”.
